Laboratory results taken from ChEMBL document CHEMBL3044592, “Synthesis, antiproliferation, and docking studies of N-phenyl-lipoamide and 8-mercapto-N-phenyloctanamide derivatives: effects of C6 position thiol moiety” (2012).

What was measured:
Assay in all cases: cells
Assay type in all cases: functional
Conditions in all cases: Homo sapiens, read-out: GI
[1] = tested on: NCI-H460
Description: Growth inhibition of Homo sapiens (human) NCI-H460 cells at 100 ug/ml by MTT assay

[2] = tested on: KB
Description: Growth inhibition of Homo sapiens (human) KB cells at 100 ug/ml by MTT assay

[3] = tested on: Bel-7402
Description: Growth inhibition of Homo sapiens (human) Bel7402 cells at 100 ug/ml by MTT assay

SMILES	inhibition of growth at 100 µg/mL [1] [%]	inhibition of growth at 100 µg/mL [2] [%]	inhibition of growth at 100 µg/mL [3] [%]
O=C(CCCCCCCS)Nc1ccccc1 [8-MERCAPTO-OCTANOIC ACID PHENYLAMIDE]	32.4	18.6	–
CC(=O)SCCCCCCCC(=O)Nc1ccccc1	82.3	77	66.3
